PMC13576449, “Small-Molecule Activators of PRMT1: Discovery, SAR Analyses, and Proapoptotic Effects in Pancreatic Cancer Cells” (Journal of Medicinal Chemistry, 2026)

biological target: T1, FLAG-tagged PRMT6 (Homo sapiens, UniProt Q96LA8); test: Fluorescence-based in vitro PRMT assay (F-PRMT assay), PRMT6; format: biochemical; settings: Table S2; 100 µM compound, vs solvent control = 100%, n=3; racemates used
T1 construct: The complete ORFs of human PRMT3 and PRMT6 were inserted; made in house; host or cells: Sf9 insect cells (baculovirus)
T1 sequence (Q96LA8 whole entry): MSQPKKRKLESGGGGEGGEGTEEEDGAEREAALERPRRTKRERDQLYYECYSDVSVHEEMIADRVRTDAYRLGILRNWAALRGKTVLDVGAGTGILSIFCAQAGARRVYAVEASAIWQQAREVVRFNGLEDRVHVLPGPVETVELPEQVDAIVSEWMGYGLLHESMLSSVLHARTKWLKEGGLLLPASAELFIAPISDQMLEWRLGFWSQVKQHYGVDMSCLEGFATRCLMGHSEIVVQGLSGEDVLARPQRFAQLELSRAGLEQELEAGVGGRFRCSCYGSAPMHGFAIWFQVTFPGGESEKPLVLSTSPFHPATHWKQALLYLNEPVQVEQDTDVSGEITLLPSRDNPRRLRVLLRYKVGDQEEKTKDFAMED
Excerpt: To evaluate the effects of the selected candidate molecules on the catalytic activity of type I enzymes, we employed a quantitative fluorescence-based in vitro PRMT activity (F-PRMT) assay using recombinant FLAG-tagged PRMT proteins expressed and affinity-purified from baculovirus-infected Sf9 cells (SI Figure S1, SI Figure S2A).
Human cell lines (PaTu8988T, PANC-1) were obtained from ATCC (American Type Culture Collection) and cultured in DMEM supplemented with 10% fetal calf serum (FCS, Gibco/BRL), 1% penicillin/streptomycin at 37 °C and 5% CO2. […] For PRMT1 inhibition, cells were treated with type I PRMT inhibitor MS023 hydrochloride (Biomol). For induction of genotoxic stress, cells were treated with gemcitabine (LC Laboratories). […] The following plasmids were used: pFASTBAC-FLAG-rat PRMT1, pFASTBAC-FLAG-mouse PRMT4, and pGEX-GAR. The complete ORFs of human PRMT3 and PRMT6 were inserted into the pFASTBAC HT-3xFLAG B vector via BamHI/HindIII and BamHI/XhoI sites, respectively.
For PRMT protein expression in insect cells, recombinant baculovirus (bacmid) was generated using the Bac-to-Bac baculovirus system (Invitrogen). Sf9 cells were transfected with bacmid DNA using X-tremeGENE HP DNA transfection reagent (Sigma-Aldrich) according to the manufacturer's instructions. After 3–5 days, supernatants were collected, filtered, and used to infect Sf9 cells to amplify the virus. After 2 rounds of virus amplification and estimation of the final P3 virus titer, the P3 virus (2–5 μL/10^6 cells) was applied for large-scale infection of 200 × 10^6 Sf9 cells in suspension culture at a density of 1 × 10^6 cells/mL. Cells were harvested 5–6 days post-infection by centrifugation at 500 g for 5 min at room temperature. Protein purification from baculovirus-infected Sf9 cells was performed as previously described. , Cells were lysed in BC buffer (20 mM HEPES pH 7.9, 250 mM NaCl, 10% (v/v) glycerin, 0.4 mM EDTA, 1 mM DTT) containing a protease inhibitor cocktail (Roche) by 3 freeze-thaw cycles. After centrifugation at 11,000 rpm (Sorval SS34 rotor) and 4 °C for 1 h, the supernatant (whole cell protein extract) was incubated with anti-FLAG M2 Affinity Gel (Cytiva) at 4 °C and under agitation for 4 h. Subsequently, beads were washed in BC buffer containing various NaCl concentrations (once in BC with 1 M NaCl, twice in BC with 500 mM NaCl, twice in BC with 250 mM NaCl and twice in BC with 100 mM NaCl). FLAG-tagged proteins were either maintained bead-bound as a 50% (v/v) slurry in BC buffer with 100 mM NaCl and stored at −80 °C or were eluted in the appropriate elution buffer (depending on the subsequent assay) containing 0.25 mg/mL 3xFLAG peptides (Sigma-Aldrich) at 4 °C for 30–45 min. To remove the FLAG-peptides from the eluate, dialysis was performed in elution buffer containing 10% (v/v) glycerol at 4 °C for 4–6 h using Slide-A-Lyzer Dialysis Devices (Thermo Fisher Scientific) according to the manufacturer’s recommendations.
In the first step, the fluorogenic substrate Nα-Benzoyl-L-arginine-7-amido-4-methylcoumarin (Bz-Arg-AMC, Sigma-Aldrich) undergoes methylation by PRMTs upon the addition of the cofactor SAM. In the second reaction step, trypsin cleaves the nonmethylated substrate, leading to the generation of the 7-amino-4-methylcoumarin product, which can be quantified by subsequent fluorescence measurement (excitation: 355 nm, emission: 460 nm). The first reaction was conducted with bead-bound PRMTs at a total volume of 100 μL. Each condition was performed as a technical triplicate to determine the mean and the standard deviation. […] For the negative controls, SAM was substituted with assay buffer. The incubation was continued at 37 °C and under agitation (1,000 rpm) for a duration of 2 h.

Row | Compound | Experimental result (PRMT6)
1 | OC1(c2c[nH]nn2)CCN(CCOc2ccc(Cl)cc2)C1 (centres unmarked) [Compound K002JS017] | n.e. (did not significantly affect the catalytic activity of the intended PRMT (less than ±6% change or not significant p-value), are marked with n.e. (no effect))
2 | Cc1cc(NC(=O)CN(C)C)cc(N2CCN(C(C)C)CC2)c1 [Compound K002FT012] | n.e. (did not significantly affect the catalytic activity of the intended PRMT (less than ±6% change or not significant p-value), are marked with n.e. (no effect))
3 | Cc1nc(N)cc(NC[C@H]2CC(=O)N(c3ccccc3)C2)n1 (racemic) [Compound K002FT010] | n.e. (did not significantly affect the catalytic activity of the intended PRMT (less than ±6% change or not significant p-value), are marked with n.e. (no effect))
4 | CNCCNC(=O)NC[C@@]12CNC[C@@]1(C(F)(F)F)C2 (racemic) [Compound K600JK013] | n.e. (did not significantly affect the catalytic activity of the intended PRMT (less than ±6% change or not significant p-value), are marked with n.e. (no effect))
5 | COCC1(CNCc2nnc([C@H]3C[C@H](N)C3)n2C2CC2)CC1 [Compound K002FT002] | n.e. (did not significantly affect the catalytic activity of the intended PRMT (less than ±6% change or not significant p-value), are marked with n.e. (no effect))
6 | CNCC1CCN(Cc2cc(F)ccc2C)CC1 [Compound K002FT009] | n.e. (did not significantly affect the catalytic activity of the intended PRMT (less than ±6% change or not significant p-value), are marked with n.e. (no effect))
7 | CCc1c(-c2cccc3ccccc23)nc2ccc(NC(=O)CN)cn12 [Compound K002FT014] | n.e. (did not significantly affect the catalytic activity of the intended PRMT (less than ±6% change or not significant p-value), are marked with n.e. (no effect))
8 | COc1cc(CN2CCC(CN)C2)cc(Cl)c1OC (centres unmarked) [Compound K002JS010] | n.e. (did not significantly affect the catalytic activity of the intended PRMT (less than ±6% change or not significant p-value), are marked with n.e. (no effect))
9 | COc1cc(CNC(C)C)ccc1OCc1nc(C)no1 [Compound K002JS018] | n.e. (did not significantly affect the catalytic activity of the intended PRMT (less than ±6% change or not significant p-value), are marked with n.e. (no effect))
10 | CCN(CC(=O)NCCc1cccc(Cl)c1)C1CNC1 [Compound K600JK006] | n.e. (did not significantly affect the catalytic activity of the intended PRMT (less than ±6% change or not significant p-value), are marked with n.e. (no effect))
11 | CN1CCC[C@H]1CCn1ccnc1-c1ccc2nonc2c1 (racemic) [Compound K002FT007] | n.e. (did not significantly affect the catalytic activity of the intended PRMT (less than ±6% change or not significant p-value), are marked with n.e. (no effect))
12 | NCCCCNCc1cc(Br)cs1 [Compound K002JS012] | n.e. (did not significantly affect the catalytic activity of the intended PRMT (less than ±6% change or not significant p-value), are marked with n.e. (no effect))
13 | O=[N+]([O-])c1ccc(Sc2n[nH]c(Cc3ccccc3)n2)nc1 [Compound K002JS015] | n.e. (did not significantly affect the catalytic activity of the intended PRMT (less than ±6% change or not significant p-value), are marked with n.e. (no effect))
14 | COc1cc(CNCCN(C)C)ccc1OCc1nc(C)no1 [Compound K002FT011] | n.e. (did not significantly affect the catalytic activity of the intended PRMT (less than ±6% change or not significant p-value), are marked with n.e. (no effect))
15 | Cc1cccc(-n2ncc3c(NCCN(C)C)ncnc32)c1 [Compound K002FT004] | n.e. (did not significantly affect the catalytic activity of the intended PRMT (less than ±6% change or not significant p-value), are marked with n.e. (no effect))
16 | CN(C)CC(=O)Nc1cnccc1N1CCOCC1 [Compound K002FT018] | n.e. (did not significantly affect the catalytic activity of the intended PRMT (less than ±6% change or not significant p-value), are marked with n.e. (no effect))
17 | CC(C)N(CCCOCc1ccccc1)CC(=N)NO [Compound K600JK007] | n.e. (did not significantly affect the catalytic activity of the intended PRMT (less than ±6% change or not significant p-value), are marked with n.e. (no effect))
18 | COc1cc(CNCCNCCO)cc(Cl)c1OC(C)C [Compound K002FT001] | n.e. (did not significantly affect the catalytic activity of the intended PRMT (less than ±6% change or not significant p-value), are marked with n.e. (no effect))
19 | CCN(CCCC(=O)Nc1cccc(C)c1)C1CNC1 [Compound K600JK005] | n.e. (did not significantly affect the catalytic activity of the intended PRMT (less than ±6% change or not significant p-value), are marked with n.e. (no effect))
20 | Clc1ccc(N2CCN(c3ncnc4[nH]ccc34)CC2)nc1 [Compound K002FT013] | n.e. (did not significantly affect the catalytic activity of the intended PRMT (less than ±6% change or not significant p-value), are marked with n.e. (no effect))
21 | COc1ccc(Cl)cc1NC(=O)[C@@H]1CCCN1 (racemic) [Compound K002JS001] | n.e. (did not significantly affect the catalytic activity of the intended PRMT (less than ±6% change or not significant p-value), are marked with n.e. (no effect))
22 | CN1CC[C@@](O)(CNCCc2cccc(OC(F)(F)F)c2)C1 (racemic) [Compound K600JK012] | n.e. (did not significantly affect the catalytic activity of the intended PRMT (less than ±6% change or not significant p-value), are marked with n.e. (no effect))
23 | COc1cccc(NC(=O)CNCCC(N)=O)c1 [Compound K002JS005] | n.e. (did not significantly affect the catalytic activity of the intended PRMT (less than ±6% change or not significant p-value), are marked with n.e. (no effect))
24 | CC(C)(C)c1cccc(OCCNC2CC(CN)C2)c1 (centres unmarked) [Compound K600JK008] | n.e. (did not significantly affect the catalytic activity of the intended PRMT (less than ±6% change or not significant p-value), are marked with n.e. (no effect))
25 | CCNc1nc(C)cc(NCCNC(=O)Cc2ccc(F)cc2)n1 [Compound K002FT003] | n.e. (did not significantly affect the catalytic activity of the intended PRMT (less than ±6% change or not significant p-value), are marked with n.e. (no effect))
26 | CN[C@H](CO)c1cc(OC)ccc1Br (racemic) [Compound K002FT016] | n.e. (did not significantly affect the catalytic activity of the intended PRMT (less than ±6% change or not significant p-value), are marked with n.e. (no effect))
27 | Nc1nccc(N2CC[C@@]3(CCCN(C4CCOCC4)C3=O)C2)n1 (racemic) [Compound K002JS009] | n.e. (did not significantly affect the catalytic activity of the intended PRMT (less than ±6% change or not significant p-value), are marked with n.e. (no effect))
28 | c1ccc2oc(C3CCN(Cc4c[nH]cn4)CC3)nc2c1 [Compound K002FT015] | n.e. (did not significantly affect the catalytic activity of the intended PRMT (less than ±6% change or not significant p-value), are marked with n.e. (no effect))

same assay, conditions: Table S2; 100 µM compound; mean % difference vs solvent control (100%), n=3

Row | Efficacy ±∆% (PRMT6) | Compound
29 | -10% | Cc1cc(NCCc2nc(C)cc(=O)[nH]2)nc(N2CCCCC2)n1 [Compound K002FT008]
